Assay results reported in PubChem BioAssay AID330 (DTP/NCI, 2004).
“And” between values parts separate entries of the source, which are not always exact repeats. Equal values may be shown once. Inconclusive results and toxic doses are left out. The calls were made as follows: active = survival T/C of 150% or more; inactive = T/C below 125% in these data.

Tested on: P388 leukemia ip, CD2F1 mice, survival T/C
Test: NCI In Vivo Anticancer Drug Screen. Data for tumor model P388 Leukemia (intraperitoneal) in CD2F1 (CDF1) mice
Settings: endpoint: median survival time, higher = longer survival
Summary of the method: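 Mice carrying the transplanted tumor received test compound or vehicle. Survival was recorded in each group, and the value is the treated-group measurement divided by that of the vehicle-treated control group.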

[1] = dose: 50.0 mg/kg/injection, schedule: Q01DX009 (ip), vehicle: saline with Tween-80
[2] = dose: 100.0 mg/kg/injection, schedule: Q01DX009 (ip), vehicle: saline with Tween-80
[3] = dose: 100.0 mg/kg/injection, schedule: Q01DX001 (ip), vehicle: saline with Tween-80
[4] = dose: 200.0 mg/kg/injection, schedule: Q01DX001 (ip), vehicle: saline with Tween-80
[5] = dose: 400.0 mg/kg/injection, schedule: Q01DX001 (ip), vehicle: saline with Tween-80
[6] = dose: 50.0 mg/kg/injection, schedule: Q01DX009 (ip), vehicle: Klucel (hydroxypropylcellulose) (HPC)
[7] = dose: 100.0 mg/kg/injection, schedule: Q01DX009 (ip), vehicle: Klucel (hydroxypropylcellulose) (HPC)
[8] = dose: 50.0 mg/kg/injection, schedule: Q01DX005 (ip), vehicle: Klucel (hydroxypropylcellulose) (HPC)
[9] = dose: 100.0 mg/kg/injection, schedule: Q01DX005 (ip), vehicle: Klucel (hydroxypropylcellulose) (HPC)
[10] = dose: 200.0 mg/kg/injection, schedule: Q01DX005 (ip), vehicle: Klucel (hydroxypropylcellulose) (HPC)

Measured: T/C

CC(C)c1cc(O)c2c(c1O)C1CC3C(C)(C)CCC[C@]23C(=O)O1 (some centres not stated)
inactive: dose: 4.88 mg/kg/injection, schedule: Q01DX005 (ip), vehicle: Klucel (hydroxypropylcellulose) (HPC) 95 % of control | dose: 9.75 mg/kg/injection, schedule: Q01DX005 (ip), vehicle: Klucel (hydroxypropylcellulose) (HPC) 100 % of control | dose: 19.5 mg/kg/injection, schedule: Q01DX005 (ip), vehicle: Klucel (hydroxypropylcellulose) (HPC) 100 % of control | dose: 39.0 mg/kg/injection, schedule: Q01DX005 (ip), vehicle: Klucel (hydroxypropylcellulose) (HPC) 96 % of control

O=C(O)C1Cc2nc[nH]c2CN1CO (configuration not stated)
inactive: dose: 25.0 mg/kg/injection, schedule: Q01DX009 (ip), vehicle: saline with Tween-80 100 % of control | [1] 109 % of control and 114 % of control | [2] 119 % of control and 120 % of control

CC(C)N1C(=O)C2C3C=CC(C2C1=O)C1C2C(=O)N(C(C)C)C(=O)C2C31 (configuration not stated)
inactive: [3] 99 % of control | [4] 96 % of control | [5] 89 % of control

O=C(CC(Sc1ccccc1)c1cccc([N+](=O)[O-])c1)c1ccccc1 (configuration not stated)
inactive: [6] 93 % of control | [7] 95 % of control

CCOC(=O)CCCCCO
inactive: [3] 104 % of control | [4] 104 % of control | [5] 106 % of control

CCN(CC)CCOC(=O)/C=C/c1ccccc1
inactive: dose: 60.0 mg/kg/injection, schedule: Q01DX005 (ip), vehicle: saline 106 % of control | dose: 120.0 mg/kg/injection, schedule: Q01DX005 (ip), vehicle: saline 107 % of control | dose: 240.0 mg/kg/injection, schedule: Q01DX005 (ip), vehicle: saline 102 % of control

CCC1C2CCCCN3C(C4CC(C)C(=O)O4)CC(C4C(C)C(=O)OC14)C23 (configuration not stated)
inactive: [8] 101 % of control | [9] 96 % of control | [10] 97 % of control | dose: 400.0 mg/kg/injection, schedule: Q01DX005 (ip), vehicle: Klucel (hydroxypropylcellulose) (HPC) 91 % of control

COC1/C=C/OC2(C)Oc3c(C)c(O)c4c(c3C2=O)C(=O)C=C(NC(=O)/C(C)=C\C=C\C(C)C2OC(C)(C)OC(C2C)C(C)C(OC(C)=O)C1C)C4=O (configuration not stated)
inactive: [1] 106 % of control | [2] 113 % of control | dose: 200.0 mg/kg/injection, schedule: Q01DX009 (ip), vehicle: saline with Tween-80 117 % of control

CCOC(=O)c1cc2c(OC)c(OC)ccc2cc1N
inactive: dose: 12.5 mg/kg/injection, schedule: Q01DX009 (ip), vehicle: other 100 % of control | dose: 25.0 mg/kg/injection, schedule: Q01DX009 (ip), vehicle: other 103 % of control | dose: 50.0 mg/kg/injection, schedule: Q01DX009 (ip), vehicle: other 100 % of control | dose: 100.0 mg/kg/injection, schedule: Q01DX009 (ip), vehicle: other 115 % of control

COc1ccc(C(=O)/C=C/c2ccc(OC)c(OC)c2OC)c(OC(C)=O)c1
inactive: dose: 100.0 mg/kg/injection, schedule: Q04DX003 (ip), vehicle: Klucel (hydroxypropylcellulose) (HPC) 98 % of control | dose: 200.0 mg/kg/injection, schedule: Q04DX003 (ip), vehicle: Klucel (hydroxypropylcellulose) (HPC) 91 % of control | dose: 400.0 mg/kg/injection, schedule: Q04DX003 (ip), vehicle: Klucel (hydroxypropylcellulose) (HPC) 93 % of control

NC(CSCCCSCC(N)C(=O)O)C(=O)O (configuration not stated)
inactive: dose: 25.0 mg/kg/injection, schedule: Q01DX001 (ip), vehicle: Klucel (hydroxypropylcellulose) (HPC) 97 % of control | dose: 50.0 mg/kg/injection, schedule: Q01DX001 (ip), vehicle: Klucel (hydroxypropylcellulose) (HPC) 97 % of control | dose: 100.0 mg/kg/injection, schedule: Q01DX001 (ip), vehicle: Klucel (hydroxypropylcellulose) (HPC) 96 % of control and 97 % of control | dose: 200.0 mg/kg/injection, schedule: Q01DX001 (ip), vehicle: Klucel (hydroxypropylcellulose) (HPC) 104 % of control

Nc1ncnc2c1ccn2COCCO
inactive: dose: 50.0 mg/kg/injection, schedule: Q01DX005 (ip), vehicle: distilled water + alcohol 100 % of control | dose: 100.0 mg/kg/injection, schedule: Q01DX005 (ip), vehicle: distilled water + alcohol 101 % of control | dose: 200.0 mg/kg/injection, schedule: Q01DX005 (ip), vehicle: distilled water + alcohol 99 % of control

CCCCNC1=CC(=O)C(NCCCC)=CC1=O
inactive: [8] 100 % of control | [9] 101 % of control | [10] 98 % of control

N#Cc1nc(CC(=O)c2ccccc2)c(CC(=O)c2ccccc2)nc1C#N
inactive: dose: 60.0 mg/kg/injection, schedule: Q01DX005 (ip), vehicle: saline with Tween-80 100 % of control | dose: 120.0 mg/kg/injection, schedule: Q01DX005 (ip), vehicle: saline with Tween-80 106 % of control and 94 % of control | dose: 240.0 mg/kg/injection, schedule: Q01DX005 (ip), vehicle: saline with Tween-80 100 % of control and 91 % of control

[Na+]
inactive: dose: 50.0 mg/kg/injection, schedule: Q01DX009 (ip), vehicle: saline 95 % of control | dose: 100.0 mg/kg/injection, schedule: Q01DX009 (ip), vehicle: saline 100 % of control | dose: 200.0 mg/kg/injection, schedule: Q01DX009 (ip), vehicle: saline 98 % of control | dose: 0.5 % in 0.5 ml injection vol, schedule: Q01DX009 (ip), vehicle: water 105 % of control and 96 % of control | dose: 1.0 % in 0.5 ml injection vol, schedule: Q01DX009 (ip), vehicle: water 100 % of control and 96 % of control | dose: 2.0 % in 0.5 ml injection vol, schedule: Q01DX009 (ip), vehicle: water 102 % of control and 106 % of control | dose: 3.12 % in 0.5 ml injection vol, schedule: Q01DX009 (ip), vehicle: water 101 % of control and 92 % of control | dose: 4.0 % in 0.5 ml injection vol, schedule: Q01DX009 (ip), vehicle: water 100 % of control and 90 % of control | dose: 6.25 % in 0.5 ml injection vol, schedule: Q01DX009 (ip), vehicle: water 108 % of control and 114 % of control | dose: 8.0 % in 0.5 ml injection vol, schedule: Q01DX009 (ip), vehicle: water 99 % of control and 104 % of control and 108 % of control

C1CSCN1
inactive: dose: 50.0 mg/kg/injection, schedule: Q01DX005 (ip), vehicle: saline 107 % of control | dose: 100.0 mg/kg/injection, schedule: Q01DX005 (ip), vehicle: saline 100 % of control | dose: 200.0 mg/kg/injection, schedule: Q01DX005 (ip), vehicle: saline 115 % of control

CN1OC(CS(=O)(=O)c2ccccc2)(S(=O)(=O)c2ccccc2)CC1c1ccccc1 (configuration not stated)
inactive: [8] 103 % of control | [9] 101 % of control | [10] 101 % of control

O=C1c2ccccc2CCC12OC2c1cccnc1 (configuration not stated)
inactive: dose: 25.0 mg/kg/injection, schedule: Q01DX009 (ip), vehicle: Klucel (hydroxypropylcellulose) (HPC) 100 % of control | [6] 100 % of control | [7] 104 % of control

CSc1ccccc1[As](c1ccccc1)c1ccccc1SC
inactive: [6] 90 % of control | [7] 92 % of control | dose: 200.0 mg/kg/injection, schedule: Q01DX009 (ip), vehicle: Klucel (hydroxypropylcellulose) (HPC) 95 % of control

CCCCCCCC/C=C\CCCCCCCCOC(N)=O
inactive: dose: 25.0 mg/kg/injection, schedule: Q04DX003 (ip), vehicle: other 100 % of control | dose: 50.0 mg/kg/injection, schedule: Q04DX003 (ip), vehicle: other 104 % of control | dose: 100.0 mg/kg/injection, schedule: Q04DX003 (ip), vehicle: other 104 % of control

CN(Cc1cccc2ccccc12)Cc1cccc2ccccc12
inactive: dose: 50.0 mg/kg/injection, schedule: Q01DX005 (ip), vehicle: saline with Tween-80 86 % of control | dose: 100.0 mg/kg/injection, schedule: Q01DX005 (ip), vehicle: saline with Tween-80 89 % of control
